Results as given in patent US8167991B2, “Trisazo compound, ink composition, recording method, and colored article” (Nippon Kayaku Kabushiki Kaisha, priority 2006, dated 2012).

Assay: Solubility of the dye compound
Assay type: physicochemical
Settings: compound obtained as a sodium salt; read-out: solubility

solubility, ≥ 100 mg/mL:
CS(=O)(=O)O.Cc1cc(N=Nc2c(C)c(C(N)=O)c3nc4ccccc4n3c2O)c(OCCCS(=O)(=O)O)cc1N=Nc1cc(C)c(N=Nc2ccc(S(=O)(=O)O)cc2C(=O)O)cc1OCCCS(=O)(=O)O [Compound No. 7], CCCc1c(N=Nc2cc(C)c(N=Nc3ccc(N=Nc4ccc(S(=O)(=O)O)cc4)cc3S(=O)(=O)O)cc2OCCCS(=O)(=O)O)c(O)n2c(nc3ccccc32)c1C#N.CS(=O)(=O)O [Compound No. 3], CS(=O)(=O)O.Cc1cc(N=Nc2c(C)c(C#N)c3nc4ccccc4n3c2O)c(OCCCCS(=O)(=O)O)cc1N=Nc1ccc(N=Nc2ccc(S(=O)(=O)O)cc2)cc1S(=O)(=O)O [Compound No. 20], Cc1cc(N=Nc2c(S(=O)(=O)O)cc3c(S(=O)(=O)O)c(N=Nc4cc(S(=O)(=O)O)c5cc(S(=O)(=O)O)c(N=Nc6ccc([N+](=O)[O-])cc6S(=O)(=O)O)c(O)c5c4N)ccc3c2O)c(OCCCS(=O)(=O)O)cc1N=Nc1cc(C)c(N=Nc2ccc(S(=O)(=O)O)c3cc(S(=O)(=O)O)cc(O)c23)cc1OCCCS(=O)(=O)O [formula (75)], CS(=O)(=O)O.Cc1cc(N=Nc2c(C)c(C#N)c3nc4ccccc4n3c2O)c(OCCCS(=O)(=O)O)cc1N=Nc1cc(C)c(N=Nc2ccc(S(=O)(=O)O)cc2C(=O)O)cc1OCCCS(=O)(=O)O [Compound No. 6], CS(=O)(=O)O.Cc1cc(N=Nc2c(-c3ccccc3)c(C#N)c3nc4ccccc4n3c2O)c(OCCCS(=O)(=O)O)cc1N=Nc1ccc(N=Nc2ccc(S(=O)(=O)O)cc2)cc1S(=O)(=O)O [Compound No. 4]

Same assay, conditions: water; read-out: solubility in water

solubility, ≥ 100 mg/mL:
Nc1c(N=Nc2ccc3c(O)c(N=Nc4ccc5c(O)c(N=Nc6ccc(N=Nc7ccc(S(=O)(=O)O)cc7)cc6S(=O)(=O)O)c(S(=O)(=O)O)cc5c4S(=O)(=O)O)c(S(=O)(=O)O)cc3c2S(=O)(=O)O)cc(S(=O)(=O)O)c2cc(S(=O)(=O)O)c(N=Nc3ccc(S(=O)(=O)O)cc3[N+](=O)[O-])c(O)c12 [formula (II-57)], Cc1cc(N=Nc2c(S(=O)(=O)O)cc3c(S(=O)(=O)O)c(N=Nc4c(S(=O)(=O)O)cc5c(S(=O)(=O)O)c(N=Nc6cc(S(=O)(=O)O)c7cc(S(=O)(=O)O)c(N=Nc8ccc([N+](=O)[O-])cc8S(=O)(=O)O)c(O)c7c6N)ccc5c4O)ccc3c2O)c(OCCCS(=O)(=O)O)cc1N=Nc1cc(S(=O)(=O)O)cc2cc(S(=O)(=O)O)cc(O)c12 [formula (II-59)], Nc1c(N=Nc2ccc3c(O)c(N=Nc4ccc5c(O)c(N=Nc6ccc(N=Nc7ccc(S(=O)(=O)O)cc7)cc6S(=O)(=O)O)c(S(=O)(=O)O)cc5c4S(=O)(=O)O)c(S(=O)(=O)O)cc3c2S(=O)(=O)O)cc(S(=O)(=O)O)c2cc(S(=O)(=O)O)c(N=Nc3ccc([N+](=O)[O-])cc3S(=O)(=O)O)c(O)c12 [formula (II-56)], Cc1cc(N=Nc2c(S(=O)(=O)O)cc3c(S(=O)(=O)O)c(N=Nc4c(S(=O)(=O)O)cc5c(S(=O)(=O)O)c(N=Nc6cc(S(=O)(=O)O)c7cc(S(=O)(=O)O)c(N=Nc8ccc([N+](=O)[O-])cc8S(=O)(=O)O)c(O)c7c6N)ccc5c4O)ccc3c2O)c(OCCCS(=O)(=O)O)cc1N=Nc1cc(C(=O)O)cc(C(=O)O)c1 [formula (II-61)]
